Reference: ChEMBL document CHEMBL1158144, “Cacalol derivatives from Roldana angulifolia” (J Nat Prod, 2006)

Columns and labels:
Type in all cases: functional, cell-based
PC-3 = assay: Cytotoxicity against human PC-3 cells
K562 = assay: Cytotoxicity against human K-562 cells
U-251 = assay: Cytotoxicity against human U251 cells
HCT-15 = assay: Cytotoxicity against human HCT-15 cells
MCF7 = assay: Cytotoxicity against human MCF7 cells
SK-LU-1 = assay: Cytotoxicity against human SKLU1 cells

Measured: IC50

COc1c2c(c(C=O)c3c(CO)coc13)[C@@H](C)CC=C2
> 10 µM: all assays above

COc1c2c3c(c4c(COC(C)=O)coc14)C(=O)OC[C@H]3CC=C2 [ANGULIFOLIDE]
> 10 µM: all assays above

COc1c2c(c(C=O)c3c(COC(C)=O)coc13)[C@@H](C)CC=C2
> 10 µM: all assays above
